Assay results taken from patent US9926529B2, “Derivation of neural stem cells and dopaminergic neurons from human pluripotent stem cells” (International Stem Cell Corporation, priority 2012, dated 2018).

Columns and labels:
Type in all cases: cell-based, human
hPSC-NSCs = assay: Dopamine ELISA of conditioned medium (dopamine release)
Procedure: (§1) To obtain DA neurons, hPSC-NSC were first primed into DA precursors with 100 ng/mL FGF8 and 2 μM Purmorphamine for 7 days and then used to screen for small molecules that induce terminal dopaminergic differentiation (FIG. 6A). The DA precursors were plated at 2000 cells/well of a 96-well plate and treated with a small molecule library (Tocris 1120 biologically active compounds) at 2.5 μM for two weeks (FIG. 6A). Dopaminergic differentiation was assessed by neurite outgrowth and ELISA analysis for dopamine release (FIG. 6A). From this screen, guggulsterone (GS), a naturally occurring steroid, was identified among the best inducers of dopaminergic differentiation (FIG. 6A). After 30 days of differentiation, GS-treated neurons appeared mature with elaborate neurite extensions. […] Spontaneous action potentials were recorded in whole cultures of GS-treated neurons using a microelectrode array (MEA) system (FIG. 6J). […]
Conditioned medium from the top neurite inducers (Table 1) (wells containing the highest density of neurites compare to control 0.1% DMSO treated) were collected and analyzed using a dopamine ELISA assay (Cosmo Bio). […] Supernatant was then collected and analyzed for quantitative determination of dopamine using a commercial dopamine ELISA assay kit (CusaCosmo Bio). Data analysis was performed using the microtiter plate reader (BIO-TEK Synergy 2). […]

hPSC-derived DA neurons = assay: Microelectrode array (MEA) recordings of GS-treated neurons; details: day 95 of differentiation, 2.5 μM guggulsterone
Procedure: Extracellular voltage recordings from cultured hPSC-derived DA neurons were made on day 95 of differentiation in NB medium [NeuroBasal medium, 1× GlutaMAX, 1× N2/B27 Supplement (Invitrogen)] supplemented with 2.5 μM guggulsterone at 37° C. using a Muse microelectrode array (MEA) system (Axion Biosystems). The surface of the MEA dishes contained an 8×8 grid (64 electrodes total) of 30 μm diameter round extracellular electrodes composed of nanoporous platinum, with 200 μm inter-polar spacing.
MEA dishes were sterilized by rinsing 3 times in sterile deionized water, once in 70% ethanol and once in 100% ethanol. Dishes were then capped and inverted in a covered petri dish, and baked at 50° C. for 4-5 hr. A polyethyleneimine (PEI) base coating was deposited by adding […] of filtered (0.22 μm filter) 0.1% PEI in sodium borate buffer (15 mM; pH 8.4) to each dish and incubating at room temperature for 1 hr. Immediately following aspiration of the PEI solution, dishes were washed 4× with 1 ml deionized water, and air-dried overnight in a tissue culture hood. […]
Voltage data were sampled simultaneously on all electrodes at 12.5 kHz with a hardware filter bandwidth of 200-5000 Hz, and saved to computer with AxIS software (Axion Biosystems). […] For spike raster plots and inter-spike interval histograms, time-stamps of detected spikes were exported to Neuroexplorer (NEX Technologies). […]

[1] = test system: hPSC-NSC derived DA neurons; assay: FACS analysis of derived DA neurons stained for TH; details: after 30 days of differentiation with guggulsterone
Procedure: as §1
For flow cytometry analysis, 1 million cells per sample were harvested with Accutase, washed with PBS, and fixed with 4% paraformaldehyde for 30 min at room temperature. […] The samples were run on a Becton Dickinison FACSCalibur™ 4-color flow cytometer and the data was analyzed with CellQuest Pro™ software (v6.0). […]

C/C=C1\C(=O)C[C@H]2[C@@H]3CCC4=CC(=O)CC[C@]4(C)[C@H]3CC[C@]12C [Guggulsterone]
increase in dopamine secretion compared to control cells (ELISA) (hPSC-NSCs; control: NSCs 1 week FGF8 and purmorphamine, 2 weeks 0.1% DMSO instead of GS): five-fold increase
levels of Dopamine spontaneous release (hPSC-NSCs; treated hPSC-NSCs, compared among top hits): highest levels
fraction of the 64 total MEA electrodes showing moderate activity (>5 spikes/min) (hPSC-derived DA neurons): Approximately one third
cells gated TH positive (FACS) [1]: more than 97%
